In patent US20220304907A1, “Oral Care Compositions” (Colgate-Palmolive Company, priority 2019, published 2022):

Test system: LL-37
Assay: LL-37 expression (qPCR) in OKF6 gingival epithelial cells after overnight treatment
Assay type: cell-based
Conditions: topical application to gingival epithelial cells (GEC)
Protocol: OKF6 Cells (Gingival epithelial cells) were grown in 6 well tissue culture plates. Cells monolayer was treated with indicated doses (FIG. 1) of Vitamin D3 or phenylbutyrate alone or in combinations of two and cells were further incubated in tissue culture incubator for overnight incubation. After overnight incubation, cells were harvested in RNA lysis buffer. Lysates were processed for RNA isolation using Qiagen RNA isolation kit. RNA was processed for c-DNA preparation and further amplified (qPCR) using LL-37 (Hs 01011708_m1), Cyp24A1 (Hs00989018_m1), GAPDH (Hs 99999905_m1) Taqman genes specific probes. QPCR data was analyzed for fold induction of LL-37 expression and relative difference of expressions was plotted. […] As illustrated by the data described in FIGS. 1 and 2, the inventive combinations of the present invention provide a synergistic increase in LL-37 and CYP24A1, respectively.

In the case of `C=C1/C(=C\C=C2/CCC[C@]3(C)[C@@H]([C@H](C)CCCC(C)(C)O)CC[C@@H]23)C[C@@H](O)C[C@@H]1O` [1,25(OH)2D3, 1,25-dihydroxycholecalciferol], the “expression of anti-microbial peptide (LL-37) proteins” value is reported as “enhanced expression”.
